Measured values taken from patent publication US7390822B2, “Substituted 4-phenyl-4-[1H-imidazol-2-yl]-piperidine derivatives for reducing ischaemic damage” (Janssen Pharmaceutica, N.V., priority 2001, dated 2008).
“And” between values parts separate entries of the source, which are not always exact repeats. Equal values may be shown once.

Key:
[1] = system: rat heart; experiment: Rat-Langendorff model (isolated perfused heart, ischaemia/reperfusion); conditions: individual rat hearts; for EDP: Degree of normalisation of EDP during reperfusion (amount above baseline EDP): 0 = recuperation to baseline EDP; for IC: Ischemic contracture: 4 μg/500 ml buffer, 20 min ischaemia; for Vfib: Number of ventricullar fibrillations during reperfusion: 40 min reperfusion
Procedure: A rat heart is rapidly dissected, attached by the aorta to a cannula and perfused with a physiological buffer (modified Krebs-Henseleit buffer: NaCl 118 mmol/l, KCl 4.7 mmol/l, MgSO4 1.2 mmol/l, KH2PO4 1.2 mmol/l, CaCl2 1.8 mmol/l, NaHCO3 23 mmol/l, glucose 11 mmol/l) without blood under 80 mmHg perfusion pressure. Oxygen is dissolved in the physiological buffer. The heart is paced atrially at 350 beats per minute. A balloon that can be optionally filled (adjustment preload) is inserted into the left ventricle. Diastolic pressure and the pressure developped are measured as well as the maximal rate of pressure development as a measure of contractility (inotropism) and the minimal rate of pressure decay as a measure of relaxation. Advantages of this model are: the heart is isolated and studied in controlled circumstances without interaction with other organs and the method is reasonably rapid and cheap. Disadvantages are: no blood perfusion, with only dissolved oxygen, therefore greater coronary flow rates with considerable vasodilatation of the coronary system; a closed system without metabolism and without interaction with other organs and a small animal model, relatively far away from clinical reality.
The study period of ischaemia is 20 minutes. The measurements after the study period of ischaemia (reperfusion phase) always last 40 minutes. Measurements before the study period of ischaemia last 30 minutes and are performed after stabilization. In the ischaemic preconditioning group the following is measured during these 30 minutes: 10 minutes baseline, 5 minutes ischaemia, 5 minutes reperfusion, 5 minutes ischaemia and 5 minutes reperfusion. In the group of the compounds according to the invention (4 μg/500 ml buffer solution) there is first 15 minutes baseline followed by 15 minutes treatment. Consequently, everything is time-matched.

[2] = system: sheep heart (left ventricle); experiment: Sheep model (normothermic myocardial ischaemia during extra corporal circulation); type: in vivo
Procedure: The model is a sheep anaesthetized with ketamine and isoflurane. The extra corporal circulation is connected by venous cannulation of both caval veins and arterial cannulation via the carotid. An additional cannula with flow meter in the right ventricle gives the flow rate over the coronary arteries. In addition to measurements of heart rate and arterial blood pressure, the left ventricle instantaneous pressure is measured as well as the left ventricle volumes via a conductance catheter. There is also a side-tubing on the arterial cannula of the artificial heart leading to the pulmonary artery. Via this route it is possible to modulate the left ventricle preload in a perfectly controlled manner in order to obtain load-independent measurements of the left ventricle contractility before and after the study period of ischaemia. Cardiac oxygen consumption was also measured as well as regional perfusion with the aid of coloured microspheres.
The study period of ischaemia was 30 minutes while the heart remained normothermic and was fully unloaded by the extra corporal circulation and venting of the ventricles. The control group was time-matched with the other groups. The ischaemic preconditioning group was subjected to 3 times 5 minutes of preconditioning ischaemia with 5 minute reperfusion intervals. In the three groups extra corporal circulation was started 30 minutes before the study period of ischaemia was imposed. The extra corporal circulation was stopped 40 minutes after the end of the study period of ischaemia. […] Only these four will be processed here. In the other groups, 7 experiments are always processed. Before each measurement of pressure-volume ratios in the left ventricle the system was switched to the right heart bypass model in which the venous flow is diverted into the extra corporal circulation via the caval veins and the blood is returned to the sheep via the pulmonary artery.

[3] = target: cloned human μ opioid receptor (Homo sapiens, UniProt P35372); experiment: Radioligand binding, competition with [3H]DAMGO; conditions: read-out: Agonist receptor binding (pIC50) mu (converted)
Sequence of cloned human μ opioid receptor (P35372 whole entry): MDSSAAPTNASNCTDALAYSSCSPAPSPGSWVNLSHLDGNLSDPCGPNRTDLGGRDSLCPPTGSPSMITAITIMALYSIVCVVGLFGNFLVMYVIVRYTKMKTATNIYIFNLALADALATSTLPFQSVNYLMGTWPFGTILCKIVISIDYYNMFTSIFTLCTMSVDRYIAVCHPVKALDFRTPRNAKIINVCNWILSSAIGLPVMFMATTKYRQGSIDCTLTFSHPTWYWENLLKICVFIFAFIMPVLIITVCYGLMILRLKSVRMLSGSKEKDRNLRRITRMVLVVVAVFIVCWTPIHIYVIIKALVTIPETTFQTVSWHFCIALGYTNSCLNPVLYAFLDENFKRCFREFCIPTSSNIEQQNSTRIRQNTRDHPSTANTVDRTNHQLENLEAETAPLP

| Structure (SMILES) | Recup: % recuperation in developed pressure at the end of reperfusion [1] | EDP: Degree of normalisation of EDP during reperfusion (amount above baseline EDP) [1] | IC: Ischemic contracture [1] | Vfib: Number of ventricullar fibrillations during reperfusion [1] | melting point [°C] | further results |
| --- | --- | --- | --- | --- | --- | --- |
| CCOC(=O)N1CCC(c2ccccc2)(c2nccn2Cc2ccccc2)CC1 [Compound 1, ethyl 4-phenyl-4-[1-(phenylmethyl)-1H-imidazol-2-yl]-1-piperidinecarboxylate] | 92% and 85% and 82% | 0 mmHg and +7 mmHg and +8 mmHg | 4 mmHg and 6 mmHg and 8 mmHg | 0 (2×) and 1 (short) |  | Tau (ventricular relaxation) ([2]; compared to control group 70 and 100 minutes after end of ischaemia): significantly lower; Preload recruitable stroke work (PRSW) ([2]; compared to control group after 70 and 100 minutes of reperfusion): significantly better; Cardiac flow after reperfusion ([2]; compared to control group, no significant difference): tendency for cardiac flow to be higher; Contractile efficacy (O2-consumption converted into PVA) ([2]; control group 32.8%, ischaemic preconditioning group 44.5%, p<0.001): 46.7% |
| O=C(c1ccccc1)N1CCC(c2ccccc2)(c2nccn2Cc2ccccc2)CC1 [Compound 2] |  |  |  |  | 122.7 |  |
| CCOC(=O)N1CCC(c2ccccc2)(c2nccn2Cc2ccc(C(=O)OC)cc2)CC1 [Compound 3] |  |  |  |  | 149.1 |  |
| CCN/C(=N/C#N)N1CCC(c2ccccc2)(c2nccn2Cc2ccccc2)CC1 [Compound 4] |  |  |  |  | 84.2 |  |
| CCOC(=O)N1CCC(c2ccccc2)(c2nccn2Cc2ccc(C(=O)O)cc2)CC1 [Compound 8] |  |  |  |  | 251.6 |  |
| CCCOC(=O)N1CCC(c2ccccc2)(c2nccn2Cc2ccccc2)CC1 [Compound 24] | 91% and 85% and 87% | 0 mmHg and +5 mmHg and +7 mmHg | 10 mmHg and 5 mmHg and 7 mmHg | 0 (2×) and 1 (short) |  |  |
| CC(C)OC(=O)N1CCC(c2ccccc2)(c2nccn2Cc2ccccc2)CC1 [Compound 25] | 79% and 85% and 75% | +6 mmHg (2×) and +10 mmHg | 5 mmHg and 7 mmHg (2×) | 0 and 1 (short) and 2 (short) |  |  |
| COC(=O)c1ccc(Cn2ccnc2C2(c3ccccc3)CCN(c3nc4ccccc4o3)CC2)cc1 [Compound 102] |  |  |  |  |  | IC50 [3]: > 1000 nM |
